Results on 3 compounds are retold here after ChEMBL document CHEMBL1132036, “Inhibition of E. coli growth by fullerene derivatives and inhibition mechanism” (Bioorg Med Chem Lett, 1999).

Broadly, the IC50 is the concentration needed to halve the response being measured.

Assay [1] has as its system Escherichia coli. In words: Compound was tested for inhibition of Escherichia coli growth. Type of assay: functional, organism-based.
The test system of assay [2] is Escherichia coli. In words: Compound was tested for inhibition of Escherichia coli dioxgen consumption. It counts as functional.

In turn, `C[N+]1(C)CC23c4c5c6c7c8c4c4c2c2c9c%10c%11c%12c(c5c5c6c6c%13c%14c%15c%16c%17c%18c%19c%20c%21c%22c%23c%24c%25c(c-%16c(c8c%25c4c%24c2c%22c9c2c%21c4c%19c(c%18%14)c8c%13c5c%12c8c4c%112)C7C%156)C%17C%23%20)C%103C1.C[N+]1(C)CC23c4c5c6c7c8c4c4c2c2c9c%10c%11c%12c(c5c5c6c6c%13c%14c%15c%16c%17c%18c%19c%20c%21c%22c%23c%24c%25c(c-%16c(c8c%25c4c%24c2c%22c9c2c%21c4c%19c(c%18%14)c8c%13c5c%12c8c4c%112)C7C%156)C%17C%23%20)C%103C1.[I-].[I-]` (stereo not given) had an IC50 with Escherichia coli [1] of 5 µM. In the assay on Escherichia coli [2], this compound displayed a Dioxygen uptake rate of 4.1 µM/min. As to `O=C(O)C1(C(=O)O)C23c4c5c6c7c8c9c%10c%11c%12c%13c%14c(c-5c5c%15c%16c(c%17c%18c2c2c4c7c4c8c7c%10c8c%10c%11c%11c%13c(c%14%15)c%13c%16c%14c%17c%15c%18c%16c2c4c2c7c8c4c(c%162)c%15c2c%14c%13c%11c%10c24)C513)C61C(C(=O)O)(C(=O)O)C9%121` (stereo not given), half-maximal inhibition in the assay with Escherichia coli [1] (IC50) was put at 100 µM. The same compound came in with a Dioxygen uptake rate in the assay with Escherichia coli [2] of 42.2 µM/min.

In the assay on Escherichia coli [2], `C[N+]12CCN(CC1)C13c4c5c6c7c8c4c4c1c1c9c%10c%11c%12c(c5c5c6c6c%13c%14c%15c%16c%17c%18c%19c%20c%21c%22c%23c%24c%25c(c-%16c(c8c%25c4c%24c1c%22c9c1c%21c4c%19c(c%18%14)c8c%13c5c%12c8c4c%111)C7C%156)C%17C%23%20)C%1032` (stereo not given) came in with a Dioxygen uptake rate of 13.7 µM/min.
